Test results as given in PubChem BioAssay (NCI).
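Values below derive from 48-hour exposures of cells grown in 96-well plates, with endpoints linearly interpolated between the two concentrations bracketing the appropriate inhibition level. GI50: concentration for 50% inhibition of growth. TGI: total growth inhibition.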

How the values were obtained:
Experiment in all cases: NCI anticancer screen, dose series, 48 h
DMS 114 small cell lung = tested on: DMS 114 small cell lung
KM20L2 colon = tested on: KM20L2 colon
CAKI-1 renal = tested on: CAKI-1 renal
OVCAR-8 ovarian = tested on: OVCAR-8 ovarian
HOP-62 NSCLC = tested on: HOP-62 NSCLC
HT29 colon = tested on: HT29 colon
LXFL 529 NSCLC = tested on: LXFL 529 NSCLC
DMS 273 small cell lung = tested on: DMS 273 small cell lung
DLD-1 colon = tested on: DLD-1 colon
M19-MEL melanoma = tested on: M19-MEL melanoma
MDA-N = tested on: MDA-N
T-47D breast = tested on: T-47D breast
SNB-75 CNS = tested on: SNB-75 CNS
SNB-78 CNS = tested on: SNB-78 CNS
A498 renal = tested on: A498 renal
HOP-18 NSCLC = tested on: HOP-18 NSCLC
BT-549 breast = tested on: BT-549 breast

Row | SMILES | TGI (DMS 114 small cell lung) [µM] | TGI (KM20L2 colon) [µM] | TGI (CAKI-1 renal) [µM] | TGI (OVCAR-8 ovarian) [µM] | TGI (HOP-62 NSCLC) [µM] | TGI (HT29 colon) [µM] | TGI (LXFL 529 NSCLC) [µM] | TGI (DMS 273 small cell lung) [µM] | TGI (DLD-1 colon) [µM] | TGI (M19-MEL melanoma) [µM] | TGI (MDA-N) [µM] | TGI (T-47D breast) [µM] | TGI (SNB-75 CNS) [µM] | TGI (SNB-78 CNS) [µM] | TGI (A498 renal) [µM] | TGI (HOP-18 NSCLC) [µM] | GI50 (CAKI-1 renal) [µM] | GI50 (SNB-75 CNS) [µM] | GI50 (HT29 colon) [µM] | TGI (BT-549 breast) [µM]
1 | CN1C(=O)CN2C(Cl)(Cl)C2(c2ccccc2)c2cc(Cl)ccc21 (stereo unspecified) | > 100 | > 100 | > 100 | > 100 | > 100 | > 100 | > 100 | > 100 | > 100 | > 100 | – | – | – | – | – | – | – | – | – | –
2 | CCP(=O)(CC)C(Cl)(Cl)C(O)C(Cl)(Cl)Cl (stereo unspecified) | – | – | > 100 | > 100 | > 100 | > 100 | – | – | – | – | > 100 | > 100 | > 100 | – | – | – | – | – | – | –
3 | CCCCCCCCCC/C=C/C=O | > 100 | > 100 | – | > 100 | – | > 100 | > 100 | > 100 | > 100 | > 100 | – | – | > 100 | > 100 | > 100 | > 100 | – | – | – | –
4 | NCCCn1c2c(c3ccc([N+](=O)[O-])cc3c1=O)C(=O)c1cc(F)ccc1-2 | – | – | 0.266 | – | – | 0.515 | – | – | – | – | – | – | 0.268 | – | – | – | 0.0498 | 0.023 | < 0.0153 | –
5 | Cc1cc(C)c(NC(=O)/C=C/c2ccccc2)c(C)c1 | – | – | – | > 100 | > 100 | > 100 | – | – | – | – | – | – | > 100 | – | – | – | – | – | – | > 100
6 | C#C[C@]1(O)[C@@H](CO)O[C@@H](n2ccc(N)nc2=O)[C@@H]1O | – | – | 0.122 | > 100 | – | – | – | – | – | – | 0.175 | – | 1.82 | – | 0.54 | – | – | – | – | 22.2
